According to patent publication US20200384072A1, “THERAPY OF IONIZING RADIATION-INDUCED DISORDERS” (SCK-CEN, priority 2019, published 2020):

Columns and labels:
Type in all cases: cell-based, human
TICAE cells = assay: IGFBP-7 and GDF-15 multiplex-based assays, TICAE cells; settings: 7 d p.i.
Experimental: (§1) TICAE and TIME cells were seeded in a 6-well plate at a density of 2.5×10^5 cells/well in 5 to 6 biological replicates. Two to three days later, cells reached 100% confluence. At 30 minutes before X-ray exposure, cells were refreshed with medium with or without 100 μM TAT-Gap19 (Genosphere Biotechnologies, Paris, France). At 24 h, 48 h, 72 h and 7 d after irradiation, the supernatant was collected. Medium was changed only for the 7 d time point experiment at the fourth day with fresh medium alone or with medium supplemented with 100 μM TAT-Gap19. For the simultaneous detection of multiple cytokines in the supernatants, the Magnetic Luminex® Assay (R&D systems, Minneapolis, […]) was used following manufacturer's instructions. Briefly, supernatants, standards and microparticles were incubated into a 96-well plate which was pre-coated with cytokine-specific antibodies. The immobilized antibodies were able to bind the cytokines of interest after 2 h incubation, then the plate was washed and incubation with a biotinylated antibody cocktail specific to the cytokines of interest was performed for 1 h. A second wash was performed to remove the unbound biotinylated antibodies. Further, a streptavidin-phycoerythrin conjugate was added to each well to bind to the biotinylated antibodies. After a final wash, the microparticles were resuspended in buffer and read using the Luminex® MAGPIX Analyzer (R&D systems, Minneapolis, […]).

TIME cells [1] = assay: Intracellular ROS, CM-H2DCFDA IncuCyte live cell imaging, TIME cells; settings: 100 μM TAT-Gap19, 0.1 Gy, 45 min p.i.
Experimental: In order to further assess intracellular ROS production, IncuCyte live cell imaging was used to have fast imaging in large number of replicates over multiple time points. TICAE and TIME cells were seeded in 96-well plate in 16 replicates at a density of 10000 cells/well. Three days later, cells reached 100% confluence. At 30 minutes before irradiation, a fresh MesoEndo Cell Growth Medium without phenol red (Sigma-Aldrich Co. LCC, Diegem, Belgium) supplemented with 10 μmol/L of the CM-H2DCFDA dye (Sigma-Aldrich Co. LCC, Diegem, Belgium) was added to the cells, with or without 100 μM TAT-Gap19 (Genosphere Biotechnologies, Paris, France). Fluorescence signals were measured at 45 min, 2 h and 3 h after irradiation (CM-H2DCFDA dye became saturated due to photoactivaton, and leaked outside the cells after this time) using the IncuCyte ZOOM® system (Essen BioScience, Ann Arbor, Mich., USA), 10× objective and FITC filter. […] Images were analysed making use of the software package provided by the manufacturer; we used a training set of images from different doses to define the image processing procedure. The so called Top-Hat background subtraction method was applied by measuring the radius of the fluorescence object (30 μm), and adjust a threshold of 1.5 (above the local background fluorescent intensity level), as described in IncuCyte™ Background Fluorescence Technical Note. […]

TIME cells [2] = assay: IGFBP-7 and GDF-15 multiplex-based assays, TIME cells; settings: 7 d p.i.
Experimental: as §1

TIME cells [3] = assay: Senescence-associated β-galactosidase CPRG assay, TIME cells
Experimental: TICAE and TIME cells were seeded in 96 well plates at a density of 10000 cells/well in 16 replicates. Three days after, cells were at 100% confluent. At 30 minutes before X-ray exposure, the cells were refreshed with 150 μl medium alone or with medium supplemented with 100 μM TAT-Gap19 (Genosphere Biotechnologies, Paris, France). For 7 d and 9 d post irradiation experiments, the medium was refreshed once, while for 14 d post irradiation experiment the medium was refreshed twice with 200 μl medium alone or with medium supplemented with 100 μM TAT-Gap19. At 7, 9 and 14 days post irradiation, cell number was determined using an Incucyte® ZOOM life cell analysis system and related software (Essen Bioscience, Hertfordshire, United Kingdom). Afterwards, the senescence associated β-galactosidase activity in the cells was determined using the chlorophenol red β-D-galactopyranoside (CPRG) assay as described previously. The cells were washed with PBS and lysed using M-PER™ buffer (Thermo Fisher Scientific, Asse, Belgium). Subsequently, 1×CPRG substrate (2 mM Chloropenol Red β-D-galactopyranoside in CPRG assay buffer containing 50 mM KPO4, 1 mM MgCl2, pH 6) (Sigma-Aldrich, Overijse, Belgium) was added to each well and the plates incubated for 18 h at 37° C. without CO2. A CLARIOstar® microplate reader (BMG Labtech, Temse, Belgium) was used to measure the absorbance at 570 nm.

TIME cells [4] = assay: Dextran fluorescein (10 kDa) dye uptake cell death assay, TIME cells
Experimental: Dextran fluorescein, staining late apoptotic and necrotic cells, was used to validate apoptosis in TIME cells after irradiation. Cells were seeded in a 24-well plate at a density of 1.5×10^5 cells/well in 6 biological replicates. Three days later, cells reached 100% confluence. Before X-ray exposure with 30 minutes, cells were refreshed with medium with or without 100 μM TAT-Gap19 (Genosphere Biotechnologies, Paris, France). At 6 h and 72 h after irradiation, cells were washed twice with HMS supplemented with 25 mM HEPES (Sigma-Aldrich Co. LCC, Diegem, Belgium) (HBSS-HEPES). Afterwards, the cells were incubated with 200 μM dextran fluorescein (10 kDa) (Life Technologies, Merelbeke, Belgium), dissolved in HBSS-HEPES. After six minutes, the staining was removed by washing six times with HBSS-HEPES. Finally, the fluorescence was measured using the IncuCyte ZOOM® system (Essen BioScience, Ann Arbor, Mich., USA) by using FITC channel and phase contrast to count the cells using a ×10 objective. The fluorescence signal was normalized to cell count.

[5] = 100 μM TAT-Gap19, 0, 0.1 and 5 Gy

TAT-Gap19: connexin mimetic peptide, amino-acids 128-136 of the CL of Cx43 (SEQ ID NO: 2), Gap19 linked to TAT sequence; Cx43 hemichannel inhibitor (YGRKKRRQRRRKQIEIKKFK)
GDF-15 (TICAE cells; [5]): significantly inhibited these responses in all treated conditions | IGFBP-7 (TICAE cells; 100 μM TAT-Gap19, 0.1 Gy): acted in a significantly inhibitory way | IGFBP-7 (radiation-induced increase) (TICAE cells; 100 μM TAT-Gap19, 5 Gy): not inhibited | ROS production (IncuCyte) (TIME cells [1]): reduced ROS production only significantly for the 0.1 Gy dose | GDF-15 (TIME cells [2]; [5]): significantly inhibited these responses in all treated conditions | IGFBP-7 control readout (TIME cells [2]; 100 μM TAT-Gap19, 0 Gy control): increased | IGFBP-7 (TIME cells [2]; 100 μM TAT-Gap19, 0.1 Gy): acted in a significantly inhibitory way | IGFBP-7 (radiation-induced increase) (TIME cells [2]; 100 μM TAT-Gap19, 5 Gy): not inhibited | SA β-gal activity (TIME cells [3]; 100 μM TAT-Gap19, 0 Gy, 0.1 Gy and 5 Gy, 7 d p.i.): significantly reduced SA β-gal activity in all conditions | SA β-gal activity (radiation responses) (TIME cells [3]; 100 μM TAT-Gap19, 0.1 Gy and 5 Gy, 14 d p.i.): significantly inhibited these responses | SA β-gal activity (TIME cells [3]; 100 μM TAT-Gap19, 5 Gy, 9 d p.i.): significantly reduced SA β-gal activity | SA β-gal activity (TIME cells [3]; 100 μM TAT-Gap19, control condition, 9 d p.i.): unexpectedly increased SA β-gal activity | dextran fluorescein staining (radiation-induced increase) (TIME cells [4]; 100 μM TAT-Gap19, 5 Gy at 6 h p.i., 5 and 0.1 Gy at 72 h p.i., including control response): inhibited | dextran fluorescein staining (TIME cells [4]; 100 μM TAT-Gap19, control and 0.1 Gy, 6 h p.i.): small increase
